For data set [1], the target named is T1, cellular thioredoxin reductase (Homo sapiens, UniProt Q16881).
T1 sequence (Q16881 1-649): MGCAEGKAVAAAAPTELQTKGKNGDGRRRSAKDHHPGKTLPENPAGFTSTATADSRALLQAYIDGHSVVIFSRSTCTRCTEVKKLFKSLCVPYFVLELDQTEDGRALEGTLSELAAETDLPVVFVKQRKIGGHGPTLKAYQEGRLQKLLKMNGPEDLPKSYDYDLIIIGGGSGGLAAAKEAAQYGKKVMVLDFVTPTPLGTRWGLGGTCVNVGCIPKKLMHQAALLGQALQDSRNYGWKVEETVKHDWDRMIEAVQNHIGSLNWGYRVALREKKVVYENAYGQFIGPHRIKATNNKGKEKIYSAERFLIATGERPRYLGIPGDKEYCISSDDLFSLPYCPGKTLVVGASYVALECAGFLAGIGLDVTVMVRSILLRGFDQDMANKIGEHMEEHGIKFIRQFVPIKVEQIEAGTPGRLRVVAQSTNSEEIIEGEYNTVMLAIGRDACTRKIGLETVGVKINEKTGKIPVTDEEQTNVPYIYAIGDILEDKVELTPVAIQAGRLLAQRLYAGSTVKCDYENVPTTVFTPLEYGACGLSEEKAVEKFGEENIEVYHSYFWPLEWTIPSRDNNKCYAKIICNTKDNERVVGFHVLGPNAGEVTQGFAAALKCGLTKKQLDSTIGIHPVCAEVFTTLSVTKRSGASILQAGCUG
The experiment in a line: Inhibition of cellular thioredoxin reductase in MCF-7 cells grown in 1 μM Se. Type of data set: cell-based. As to the method:
FIG. 3. Inhibition of cellular thioredoxin reductase by PX-916. MCF-7 human breast cancer cells grown in medium containing 1 μM Se for 7 days were treated with PX-916 and total cellular thioredoxin reductase activity measured. A. Time course of the inhibition of the thioredoxin reductase on exposure to 1 μM PX-916. […] In both cases values are the mean of 3 separate determinations and bars are S.E. P≦0.04 or **p≦0.01. C. Inhibition of MCF-7 tumor thioredoxin reductase by PX-916. MCF-7 human breast cancer xenografts were grown in female scid mice implanted with 17-β-estradiol 60 day slow-release pellets until they were ˜300 mm^3. The mice were administered a single dose of PX-916 of 25 mg/kg i.v. and tumors harvested at various times. Thioredoxin reductase activity was measured in tumor homogenates. Values are the mean of 3 mice at each time point and bars are SE. **p<0.01 compared to pretreatment value.
Cell growth inhibition of MCF-7 human breast cancer cells by palmarumycin, PX-916 and PX-960 occurred at similar concentration of 1 to 3 μM (Table 2). MCF-7 human breast cancer cells were grown in medium containing 1 μM selenium (Se) for 7 days which increased cellular thioredoxin reductase activity by about 5 fold as previously reported. […] Thus, inhibition of purified human TR, MCF-7 cellular TR and cell growth inhibition of MCF-7 cells by PX-916 occurred at about the same concentrations.

Data set [2] concerns the target T2, human thioredoxin reductase (Homo sapiens, UniProt Q16881).
T2 construct: (placenta); from tissue; host or cells: human placenta
T2 sequence (Q16881 151-649 limits assumed): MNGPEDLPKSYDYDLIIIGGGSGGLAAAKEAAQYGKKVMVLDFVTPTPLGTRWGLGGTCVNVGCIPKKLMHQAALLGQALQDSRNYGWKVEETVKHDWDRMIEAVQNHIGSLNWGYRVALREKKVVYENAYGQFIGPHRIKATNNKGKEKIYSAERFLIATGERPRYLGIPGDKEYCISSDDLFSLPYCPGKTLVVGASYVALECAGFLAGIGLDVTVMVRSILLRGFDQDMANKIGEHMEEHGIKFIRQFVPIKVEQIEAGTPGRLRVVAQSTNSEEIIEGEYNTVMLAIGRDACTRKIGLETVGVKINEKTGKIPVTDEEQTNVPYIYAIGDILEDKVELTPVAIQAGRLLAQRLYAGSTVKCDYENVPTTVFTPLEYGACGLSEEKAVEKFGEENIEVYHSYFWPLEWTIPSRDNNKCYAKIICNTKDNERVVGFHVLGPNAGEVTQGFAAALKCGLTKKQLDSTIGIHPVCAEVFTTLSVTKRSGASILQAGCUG
The experiment in a line: Inhibition of purified human thioredoxin reductase (TrxR/TR). Type of data set: biochemical.

Data set [3] deals with MCF-7 human breast cancer xenografts. The experiment in a line: Antitumor activity, MCF-7 breast cancer xenograft. Type of data set: in vivo, mouse. As to the method: FIG. 4. Antitumor activity of PX-916. A. Female beige nude mice were inoculated subcutaneously (s.c.) with 10^7 A-673 rhabdomyosarcoma cells. When tumors were 100 mm^3 on day 8 (arrow) dosing was begun with (∘) vehicle alone; (▴) PX-916 10 mg/kg intraperitoneally (i.p.) daily for 4 doses. B. Female scid mice were inoculated s.c. with 10^7 SHP-77 human small cell lung cancer cells. When tumors were 130 mm^3 on day 17 (arrow) dosing was begun with (∘) vehicle alone; (▪) PX-916 10 mg/kg i.v. daily for 8 doses; (▴) PX-916 25 mg/kg i.v. daily for 5 doses. C. Female scid mice implanted 1 day previously with a 17-β-estradiol 60 day slow release pellet were inoculated s.c. with 10^7 MCF-7 human breast cancer cells. […] In both A and B values are the mean of 8 mice per group and bars are SE.
A single intravenous (i.v.) dose of PX-916 of 25 mg/kg inhibited MCF-7 human tumor xenograft TR up to about 60% at 24 hr and the inhibition was maintained for at least 48 hr (FIG. 3C). […] In this study 3 of eight nice had no histologically detectable tumor when the study was terminated on day 42.

Data set [4] can be described thus: pH dependent stability in water / 0.1M sodium phosphate buffer. In kind it is physicochemical. Here is the method:
PX-916 was stable as a stock solution in ethanol at room temperature with a half life of >5 days. […] Therefore, for in vitro studies PX-916 was used as a stock solution in ethanol, and for in vivo studies made fresh in pH 4.0 buffer vehicle.
Further palmarumycin analogs were synthesized and tested. The following analogs were synthesized: eee269-II, eee86-III, eee263-II and eee273-II. The stability of the analogs was measured in various solutions.

Where [5] appears, read: 27.5 mg/kg i.v. every other day for 5 doses.

Where two headings read alike, the source gives them in different places. Bounds are passed on as bounds.

`NCC(=O)Oc1ccc2c3c(cccc13)OC1(C=CC(=O)c3c(O)cccc31)O2` (stereo not drawn) [PX-916, O-glycyl naphthoquinone spiroketal]: the “time of maximum inhibition of cellular TR” value in data set [1] (MCF-7 cells exposed to 1 μM) is 24 h. Moreover, the “concentration of maximum inhibition of cellular TR” value in data set [1] (MCF-7 cells, 17 hours exposure) is 0.5 µM. Besides, the IC50 is 280 nM in data set [2] (Table 1, read-out: TrxR inhibitory activity IC50); 280 nM in data set [2] (Table 2, read-out: Inhibition of human thioredoxin reductase IC50); 280 nM in data set [2] (Table 3, read-out: Inhibition IC50, thioredoxin reductase (placenta)); 280 nM in data set [2] (read-out: IC50 purified TrxR); 280 nM in data set [2] (read-out: IC50 purified human TR). Besides, in data set [2] (in words), the “mode of inhibition of thioredoxin reductase-1” value is “NADPH and time dependent, apparently, irreversible inhibitor”. The tumor growth inhibition came to 52% in data set [3] (27.5 mg/kg i.v. daily for 5 doses), 52% in data set [3] (setting [5]) and 62% in data set [3] (27.5 mg/kg orally for 5 doses). The tumor growth rate in data set [3] (27.5 mg/kg i.v. daily for 5 doses, 5 days after end of dosing) amounted to 22±4 mm^3/day; in data set [3] (setting [5]), 22±8 mm^3/day; in data set [3] (27.5 mg/kg orally for 5 doses), 18.5±8 mm^3/day. Also, the “antitumor activity following oral administration” value in data set [3] (oral, at doses that gave i.v. antitumor activity) is “Significant antitumor activity was not seen”. Besides, the half-life in data set [4] (0.1M sodium phosphate buffer, pH 4.0, read-out: half life (converted)) is 37 h; in data set [4] (0.1M sodium phosphate buffer, pH 7.0, read-out: half life (converted)) it was 1 h; in data set [4] (0.1M sodium phosphate buffer, pH 10.0, read-out: half life (converted)), less than 1 h; in data set [4] (water, pH 4, room temperature, pH4, read-out: t1/2 in water (converted)) it was 37 h; in data set [4] (water, pH 7 and above, read-out: t1/2 in water (converted)), less than 1 h. Moreover, the “half life of conversion to PX-960” value in data set [4] (physiological pH) is 1 h.

Values taken from patent publication US20120226031A1, “PALMARUMYCIN BASED INHIBITORS OF THIOREDOXIN AND METHODS OF USING SAME” (ARIZONA BOARD OF REGENTS, ACTING ON BEHALF OF THE …, priority 2005, published 2012).
